Test results published in patent US8044082B2, “N-phenylacetamide inhibitors of the enzyme SOAT-1 and pharmaceutical/cosmetic compositions comprised thereof” (Galderma Research & Development, priority 2007, dated 2011).

Experiments:
enzyme ACAT-1 = molecular target: T1, enzyme ACAT-1 (Homo sapiens, UniProt P35610); test: ACAT-1 (SOAT-1) inhibition test in HepG2 cells with NBD-cholesterol fluorescence; format: cell-based; details: NBD-cholesterol 1 μg/ml, incubation 6 h at 37° C., fluorescence excitation 490 nm / emission 540 nm
T1 sequence (P35610 1-550): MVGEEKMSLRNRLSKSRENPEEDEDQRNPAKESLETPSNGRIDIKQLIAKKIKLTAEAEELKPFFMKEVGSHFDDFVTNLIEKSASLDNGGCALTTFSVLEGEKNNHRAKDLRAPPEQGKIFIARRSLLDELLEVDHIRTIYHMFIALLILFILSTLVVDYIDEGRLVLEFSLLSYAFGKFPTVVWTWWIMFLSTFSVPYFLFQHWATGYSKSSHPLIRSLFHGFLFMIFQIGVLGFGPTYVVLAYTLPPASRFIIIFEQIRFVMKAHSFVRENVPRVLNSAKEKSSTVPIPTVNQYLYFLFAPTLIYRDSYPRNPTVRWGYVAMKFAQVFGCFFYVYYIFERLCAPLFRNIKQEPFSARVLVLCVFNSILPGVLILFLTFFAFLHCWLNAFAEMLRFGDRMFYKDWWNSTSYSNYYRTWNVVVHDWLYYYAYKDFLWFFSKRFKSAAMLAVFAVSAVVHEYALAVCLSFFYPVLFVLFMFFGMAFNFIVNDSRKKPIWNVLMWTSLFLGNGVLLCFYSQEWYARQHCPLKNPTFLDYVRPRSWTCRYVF
Procedure: The compounds (I) according to the invention, as well as their pharmaceutically acceptable salts, solvates and/or hydrates, have inhibitory properties on the enzyme SOAT-1. This inhibitory activity on the enzyme SOAT-1 is measured according to a primary enzymatic test HepG2, as described in Example 64.
The compounds of formula (I) according to the invention have been subjected to a test allowing their inhibitory action with respect to the enzyme ACAT-1 to be evaluated inspired by the following publication: “Identification of ACAT1- and ACAT2-specific inhibitors using a novel, cell-based fluorescence assay: individual ACAT uniqueness”, J. Lipid Res. (2004) vol. 45, pages 378-386.
The principle of this test is based on the employment of NBD-cholesterol, an analogue of cholesterol whose fluorescence depends on its environment. When this is present in a polar environment, it is weakly fluorescent although in a nonpolar environment it is strongly fluorescent. Free NBD-cholesterol locates itself in the cell membranes and is weakly fluorescent in this polar environment. When the NBD-cholesterol is esterified by ACAT, the ester of NBD-cholesterol locates itself in the nonpolar lipid droplets and is in that case strongly fluorescent.
The method below is applied: The HepG2 cells are incubated in the presence of NBD-cholesterol (1 μg/ml) and of the compound of formula (I) to be tested in black 96-well plates with a transparent base at a rate of 30 000 cells per well. After incubation for 6 h at 37° C., under 5% CO2, the medium is eliminated by turning over and the cells are washed with 2 times 100 μl of PBS. After addition of 50 μl of lysis buffer (NaPO4 10 mM, Igepal 1%), the plates are stirred for 5 min and read in fluorescence (excitation 490 nm, emission 540 nm) on a FUSION apparatus (Perkin-Elmer).

Row | melting point | IC50 (enzyme ACAT-1) | SMILES
1 | 234 °C | 0.2 nM | Cc1ccc(N2C(=O)N(CC(=O)Nc3c(C(C)C)cccc3C(C)C)C(=O)C23CCCCC3)cc1 [compound (I.10), N-(2,6-Diisopropylphenyl)-2-(2,4-dioxo-1-p-tolyl-1,3-diazaspiro[4.5]dec-3-yl)acetamide]
2 | 225 °C | 5.6 nM | CC(C)c1cccc(C(C)C)c1NC(=O)CN1C(=O)N(CCc2ccccc2)C2(CCCCC2)C1=O [compound (I.23), N-(2,6-Diisopropylphenyl)-2-(2,4-dioxo-1-phenethyl-1,3-diazaspiro[4.5]dec-3-yl)acetamide]
3 | 241 °C | 2.5 nM | CCCCN1C(=O)N(CC(=O)Nc2c(C(C)C)cccc2C(C)C)C(=O)C12CCCCC2 [compound (I.26), 2-(1-Butyl-2,4-dioxo-1,3-diazaspiro[4.5]dec-3-yl)-N-(2,6-diisopropylphenyl)acetamide]
4 | 236 °C | 4.8 nM | CC(C)c1cccc(C(C)C)c1NC(=O)CN1C(=O)N(C2CCCCC2)C2(CCCCC2)C1=O [compound (I.14), 2-[1-Cyclohexyl-2,4-dioxo-1,3-diazaspiro[4.5]dec-3-yl)-N-(2,6-diisopropyl-phenyl)acetamide]
5 | 220 °C |  | CCCCc1ccc(N2C(=O)N(CC(=O)Nc3c(C(C)C)cccc3C(C)C)C(=O)C23CCCCC3)cc1 [compound (I.38), 2-[1-(4-Butylphenyl)-2,4-dioxo-1,3-diazaspiro[4.5]dec-3-yl]-N-(2,6-diisopropylphenyl)acetamide]
6 | 228 °C |  | CCCCc1ccc(N2C(=O)N(CC(=O)Nc3c(C(C)C)cccc3C(C)C)C(=O)C23CCCC3)cc1 [compound (I.40), 2-[1-(4-Butylphenyl)-2,4-dioxo-1,3-diazaspiro[4.4]non-3-yl]-N-(2,6-diisopropylphenyl)acetamide]
7 | 238 °C |  | Cc1ccccc1N1C(=O)N(CC(=O)Nc2c(C(C)C)cccc2C(C)C)C(=O)C12CCCCC2 [compound (I.21), N-(2,6-Diisopropylphenyl)-2-(2,4-dioxo-1-o-tolyl-1,3-diazaspiro[4.5]dec-3-yl)acetamide]
8 | 233 °C |  | CC(C)CN1C(=O)N(CC(=O)Nc2c(C(C)C)cccc2C(C)C)C(=O)C12CCCCC2 [compound (I.28), N-(2,6-Diisopropylphenyl)-2-(1-isobutyl-2,4-dioxo-1,3-diazaspiro[4.5]dec-3-yl)acetamide]
9 | 208 °C |  | CCCCCCCN1C(=O)N(CC(=O)Nc2c(C(C)C)cccc2C(C)C)C(=O)C12CCCCC2 [compound (I.30), N-(2,6-Diisopropylphenyl)-2-(1-heptyl-2,4-dioxo-1,3-diazaspiro[4.5]dec-3-yl)acetamide]
10 | 231 °C |  | CC(C)c1cccc(C(C)C)c1NC(=O)CN1C(=O)N(c2ccccc2F)C2(CCCCC2)C1=O [compound (I.19)]
11 | 246 °C |  | CCc1ccc(N2C(=O)N(CC(=O)Nc3c(C(C)C)cccc3C(C)C)C(=O)C23CCCC3)cc1 [compound (I.37), N-(2,6-Diisopropylphenyl)-2-[1-(4-ethylphenyl)-2,4-dioxo-1,3-diazaspiro[4.4]non-3-yl]acetamide]
12 | 245 °C |  | CC(C)c1cccc(C(C)C)c1NC(=O)CN1C(=O)N(c2ccccc2)C2(CCCCC2)C1=O [compound (I.2), N-(2,6-Diisopropylphenyl)-2-(2,4-dioxo-1-phenyl-1,3-diazaspiro[4.5]dec-3-yl)acetamide]

More lines, now with the values behind:

Row | SMILES | melting point | IC50 (enzyme ACAT-1)
13 | CC(C)c1cccc(C(C)C)c1NC(=O)CN1C(=O)N(c2ccc(F)cc2)C2(CCCCC2)C1=O [compound (I.7), N-(2,6-Diisopropylphenyl)-2-[1-(4-fluorophenyl)-2,4-dioxo-1,3-diazaspiro-[4.5]dec-3-yl]acetamide] | 258 °C | 0.8 nM
14 | Cc1ccc(N2C(=O)N(CC(=O)Nc3c(C)cc(C)cc3Br)C(=O)C23CCCCC3)cc1 [compound (I.52), N-(2-Bromo-4,6-dimethylphenyl)-2-(2,4-dioxo-1-p-tolyl-1,3-diazaspiro[4.5]dec-3-yl)acetamide] | 245 °C | 5.3 nM
15 | Cc1ccc(N2C(=O)N(CC(=O)Nc3c(C)cccc3Cl)C(=O)C23CCCCC3)cc1 [compound (I.46), N-(2-Chloro-6-methylphenyl)-2-(2,4-dioxo-1-p-tolyl-1,3-diazaspiro[4.5]dec-3-yl)acetamide] | 244 °C | 5.1 nM
16 | CC(C)c1cccc(C(C)C)c1NC(=O)CN1C(=O)N(c2cccc(Cl)c2)C2(CCCCC2)C1=O [compound (I.12), 2-[1-(3-Chlorophenyl)-2,4-dioxo-1,3-diazaspiro[4.5]dec-3-yl]-N-(2,6-di-isopropylphenyl)acetamide] | 240 °C | 
17 | CC(C)c1cccc(C(C)C)c1NC(=O)CN1C(=O)N(c2ccc(OCc3ccccc3)cc2)C2(CCCCC2)C1=O [compound (I.60), 2-[1-(4-Benzyloxyphenyl)-2,4-dioxo-1,3-diazaspiro[4.5]dec-3-yl]-N-(2,6-di-isopropylphenyl)acetamide] | 118 °C | 
18 | Cc1cc(C(=O)N(C)C2CCCCC2)cc(C)c1NC(=O)CN1C(=O)N(c2ccccc2)C2(CCCCC2)C1=O [compound (I.3), N-(Cyclohexyl)-4-[2-(2,4-dioxo-1-phenyl-1,3-diazaspiro[4.5]dec-3-yl]-acetylamino]-3,5,N-trimethylbenzamide] | 177 °C | 
19 | CCc1cccc(CC)c1NC(=O)CN1C(=O)N(c2ccc(Cl)cc2)C2(CCCC2)C1=O [compound (I.61), 2-[1-(4-Chlorophenyl)-2,4-dioxo-1,3-diazaspiro[4.4]non-3-yl]-N-(2,6-diethylphenyl)acetamide] | 218 °C | 2.7 nM
20 | CCc1cccc(CC)c1NC(=O)CN1C(=O)N(c2ccc(OCc3ccccc3)cc2)C2(CCCCC2)C1=O [compound (I.62), 2-[1-(4-Benzyloxyphenyl)-2,4-dioxo-1,3-diazaspiro[4.5]dec-3-yl]-N-(2,6-di-ethylphenyl)acetamide] | 184 °C | 
21 | Cc1ccc(N2C(=O)N(CC(=O)Nc3c(C(C)C)cccc3C(C)C)C(=O)C23CCCC3)cc1 [compound (I.34), N-(2,6-Diisopropylphenyl)-2-(2,4-dioxo-1-p-tolyl-1,3-diazaspiro[4.4]non-3-yl)acetamide] | 278 °C | 
22 | CCC1(CC)C(=O)N(CC(=O)Nc2c(C(C)C)cccc2C(C)C)C(=O)N1c1ccc(C)cc1 [compound (I.39), 2-(4,4-Diethyl-2,5-dioxo-3-p-tolylimidazolidin-1-yl)-N-(2,6-diisopropylphenyl)acetamide] | 174 °C | 0.7 nM
23 | CCc1cccc(CC)c1NC(=O)CN1C(=O)N(c2ccc(C)cc2)C2(CCCCC2)C1=O [compound (I.48), N-(2,6-Diethylphenyl)-2-(2,4-dioxo-1-p-tolyl-1,3-diazaspiro[4.5]dec-3-yl)-acetamide] | 214 °C | 
24 | CC(C)c1cccc(C(C)C)c1NC(=O)CN1C(=O)N(c2ccc(Cl)cc2)C2(CCCC2)C1=O [compound (I.24), 2-[1-(4-Chlorophenyl)-2,4-dioxo-1,3-diazaspiro[4.4]non-3-yl]-N-(2,6-di-isopropylphenyl)acetamide] | 270 °C | 
25 | Cc1ccc(N2C(=O)N(CC(=O)Nc3c(C)cc(C)cc3C)C(=O)C23CCCCC3)cc1 [compound (I.45), 2-(2,4-Dioxo-1-p-tolyl-1,3-diazaspiro[4.5]dec-3-yl)-N-(2,4,6-trimethylphenyl)acetamide] | 266 °C | 
26 | CC(C)c1cccc(C(C)C)c1NC(=O)CN1C(=O)N(c2ccccc2)C2(CCCC2)C1=O [compound (I.1), N-(2,6-Diisopropylphenyl)-2-(2,4-dioxo-1-phenyl-1,3-diazaspiro[4.4]non-3-yl)acetamide] |  | 3.2 nM
